Columns and labels:
Assay type in all cases: functional
DU-145 = assay: Cytotoxicity against human DU145 cells by SRB assay
LNCaP = assay: Cytotoxicity against human LNcaP cells by SRB assay
SK-OV-3 = assay: Cytotoxicity against human SK-OV-3 cells by SRB assay
[1] = Cytotoxicity against human IGROV cells by SRB assay
[2] = Cytotoxicity against human ecteinascidin-743-resistant IGROV-ET cells by SRB assay
SK-BR-3 = assay: Cytotoxicity against human SK-BR3 cells by SRB assay
SK-MEL-28 = assay: Cytotoxicity against human SK-MEL-28 cells by SRB assay
[3] = Cytotoxicity against human HMEC1 cells by SRB assay; details: HMEC-1
A549 = assay: Cytotoxicity against human A549 cells by SRB assay
K562 = assay: Cytotoxicity against human K562 cells by SRB assay
PANC-1 = assay: Cytotoxicity against human PANC1 cells by SRB assay
HT-29 = assay: Cytotoxicity against human HT29 cells by SRB assay
LoVo [4] = assay: Cytotoxicity against human LOVO cells by SRB assay
LoVo [5] = assay: Cytotoxicity against human doxorubicin-resistant LOVO cells by SRB assay
HeLa [6] = assay: Cytotoxicity against human HeLa cells by SRB assay
HeLa [7] = assay: Cytotoxicity against human aplidin-resistant HeLa cells by SRB assay

Row | SMILES | GI50 (DU-145) | GI50 (LNCaP) | GI50 (SK-OV-3) | GI50 [1] | GI50 [2] | GI50 (SK-BR-3) | GI50 (SK-MEL-28) | GI50 [3] | GI50 (A549) | GI50 (K562) | GI50 (PANC-1) | GI50 (HT-29) | GI50 (LoVo [4]) | GI50 (LoVo [5]) | GI50 (HeLa [6]) | GI50 (HeLa [7])
1 | CCCCCCCCC/C(C)=C\C(=O)NCCc1c[nH]c2ccccc12 [GRANULATAMIDE A] | 1.7 µM | 4.7 µM | 11.6 µM | 6.7 µM | 12.7 µM | 2.7 µM | 3.9 µM | 6.2 µM | 6.7 µM | 6.8 µM | 10.4 µM | 2.2 µM | 10.5 µM | 12 µM |  | 
2 | CCCCCCC/C(C)=C/C(C)=C\C(=O)NCCc1c[nH]c2ccccc12 [GRANULATAMIDE B] | 7.7 µM | 3.5 µM |  | 8.2 µM | 6.7 µM | 6 µM | 10.6 µM |  | 8.9 µM | 4.3 µM | 6.5 µM | 13.8 µM | 8.6 µM | 10 µM | 9.7 µM | 9 µM

From ChEMBL document CHEMBL1157329, “Granulatamides A and B, cytotoxic tryptamine derivatives from the soft coral Eunicella granulata” (2006)
